In PubChem BioAssay (NCI):
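All cell lines were grown in 96-well plates and treated with compound for 48 hours. TGI denotes the concentration required for complete inhibition of growth.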

Tests used:
Assay in all cases: NCI-60 cell line screen, 48 h
786-0 renal = system: 786-0 renal
A498 renal = system: A498 renal
A549 NSCLC = system: A549 NSCLC
ACHN renal = system: ACHN renal
CAKI-1 renal = system: CAKI-1 renal
CCRF-CEM leukemia = system: CCRF-CEM leukemia
COLO 205 colon = system: COLO 205 colon
DLD-1 colon = system: DLD-1 colon
DMS 114 small cell lung = system: DMS 114 small cell lung
DMS 273 small cell lung = system: DMS 273 small cell lung
EKVX NSCLC = system: EKVX NSCLC
HCC-2998 colon = system: HCC-2998 colon
HCT-116 colon = system: HCT-116 colon
HCT-15 colon = system: HCT-15 colon
HL-60(TB) leukemia = system: HL-60(TB) leukemia
HOP-18 NSCLC = system: HOP-18 NSCLC
HOP-62 NSCLC = system: HOP-62 NSCLC
HOP-92 NSCLC = system: HOP-92 NSCLC
HT29 colon = system: HT29 colon
IGROV1 ovarian = system: IGROV1 ovarian
K-562 leukemia = system: K-562 leukemia
KM12 colon = system: KM12 colon
KM20L2 colon = system: KM20L2 colon
LOX IMVI melanoma = system: LOX IMVI melanoma
LXFL 529 NSCLC = system: LXFL 529 NSCLC
M14 melanoma = system: M14 melanoma
M19-MEL melanoma = system: M19-MEL melanoma
MALME-3M melanoma = system: MALME-3M melanoma
MOLT-4 leukemia = system: MOLT-4 leukemia
NCI-H226 lung = system: NCI-H226 lung
NCI-H23 lung = system: NCI-H23 lung
NCI-H460 lung = system: NCI-H460 lung
NCI-H522 lung = system: NCI-H522 lung
OVCAR-3 ovarian = system: OVCAR-3 ovarian
OVCAR-4 ovarian = system: OVCAR-4 ovarian
OVCAR-5 ovarian = system: OVCAR-5 ovarian
OVCAR-8 ovarian = system: OVCAR-8 ovarian
RPMI-8226 leukemia = system: RPMI-8226 leukemia
RXF 393 renal = system: RXF 393 renal
RXF-631 renal = system: RXF-631 renal
SF-268 CNS = system: SF-268 CNS
SF-295 CNS = system: SF-295 CNS
SK-MEL-2 melanoma = system: SK-MEL-2 melanoma
SK-MEL-28 melanoma = system: SK-MEL-28 melanoma
SK-MEL-5 melanoma = system: SK-MEL-5 melanoma
SK-OV-3 ovarian = system: SK-OV-3 ovarian
SN12C renal = system: SN12C renal
SNB-19 CNS = system: SNB-19 CNS
SNB-75 CNS = system: SNB-75 CNS
SNB-78 CNS = system: SNB-78 CNS
SR leukemia = system: SR leukemia
SW-620 colon = system: SW-620 colon
TK-10 renal = system: TK-10 renal
U251 CNS = system: U251 CNS
UACC-257 melanoma = system: UACC-257 melanoma
UACC-62 melanoma = system: UACC-62 melanoma
UO-31 renal = system: UO-31 renal
SF-539 CNS = system: SF-539 CNS

`CCCCCCCC[N+](C)(C)Cc1ccc(C[N+](C)(C)CCCCCCCC)cc1` gave a TGI (786-0 renal) greater than 100 µM, a TGI (A498 renal) greater than 100 µM and a TGI (A549 NSCLC) greater than 100 µM. It also gave a TGI (ACHN renal) greater than 100 µM, a TGI (CAKI-1 renal) greater than 100 µM and a TGI (CCRF-CEM leukemia) greater than 100 µM. For the same molecule, the TGI (COLO 205 colon) was 3.48 µM, the TGI (DLD-1 colon) was greater than 100 µM and the TGI (DMS 114 small cell lung) was greater than 100 µM. The TGI (DMS 273 small cell lung) was 36.5 µM, the TGI (EKVX NSCLC) was greater than 100 µM and the TGI (HCC-2998 colon) was greater than 100 µM. It also gave a TGI (HCT-116 colon) greater than 100 µM, a TGI (HCT-15 colon) greater than 100 µM and a TGI (HL-60(TB) leukemia) of 97.6 µM. The TGI (HOP-18 NSCLC) was greater than 100 µM, the TGI (HOP-62 NSCLC) was greater than 100 µM and the TGI (HOP-92 NSCLC) was 88.1 µM. For the same molecule, the TGI (HT29 colon) was greater than 100 µM, the TGI (IGROV1 ovarian) was 65.1 µM and the TGI (K-562 leukemia) was greater than 100 µM. The TGI (KM12 colon) was greater than 100 µM, the TGI (KM20L2 colon) was greater than 100 µM and the TGI (LOX IMVI melanoma) was greater than 100 µM. The TGI (LXFL 529 NSCLC) was greater than 100 µM, the TGI (M14 melanoma) was greater than 100 µM and the TGI (M19-MEL melanoma) was greater than 100 µM. The TGI (MALME-3M melanoma) was greater than 100 µM, the TGI (MOLT-4 leukemia) was greater than 100 µM and the TGI (NCI-H226 lung) was greater than 100 µM. For the same molecule, the TGI (NCI-H23 lung) was 47 µM, the TGI (NCI-H460 lung) was greater than 100 µM and the TGI (NCI-H522 lung) was greater than 100 µM. The TGI (OVCAR-3 ovarian) was greater than 100 µM, the TGI (OVCAR-4 ovarian) was greater than 100 µM and the TGI (OVCAR-5 ovarian) was greater than 100 µM. It also gave a TGI (OVCAR-8 ovarian) greater than 100 µM, a TGI (RPMI-8226 leukemia) greater than 100 µM and a TGI (RXF 393 renal) greater than 100 µM. It also gave a TGI (RXF-631 renal) greater than 100 µM, a TGI (SF-268 CNS) greater than 100 µM and a TGI (SF-295 CNS) greater than 100 µM. For the same molecule, the TGI (SK-MEL-2 melanoma) was greater than 100 µM, the TGI (SK-MEL-28 melanoma) was greater than 100 µM and the TGI (SK-MEL-5 melanoma) was greater than 100 µM. It also gave a TGI (SK-OV-3 ovarian) greater than 100 µM, a TGI (SN12C renal) greater than 100 µM and a TGI (SNB-19 CNS) greater than 100 µM. It also gave a TGI (SNB-75 CNS) greater than 100 µM, a TGI (SNB-78 CNS) greater than 100 µM and a TGI (SR leukemia) greater than 100 µM. The TGI (SW-620 colon) was greater than 100 µM, the TGI (TK-10 renal) was greater than 100 µM and the TGI (U251 CNS) was greater than 100 µM. For the same molecule, the TGI (UACC-257 melanoma) was greater than 100 µM, the TGI (UACC-62 melanoma) was greater than 100 µM and the TGI (UO-31 renal) was greater than 100 µM.
`CC1=CC(=O)C(C)(C2=NC(C)(C)CO2)c2ccccc21` (centres undefined) was tested, and the TGI (786-0 renal) was greater than 100 µM, the TGI (A549 NSCLC) was greater than 100 µM and the TGI (ACHN renal) was greater than 100 µM. The TGI (CAKI-1 renal) was greater than 100 µM, the TGI (CCRF-CEM leukemia) was greater than 100 µM and the TGI (COLO 205 colon) was greater than 100 µM. The TGI (DLD-1 colon) was greater than 100 µM, the TGI (DMS 114 small cell lung) was greater than 100 µM and the TGI (EKVX NSCLC) was greater than 100 µM. For the same molecule, the TGI (HCT-116 colon) was greater than 100 µM, the TGI (HCT-15 colon) was greater than 100 µM and the TGI (HL-60(TB) leukemia) was greater than 100 µM. It also gave a TGI (HOP-18 NSCLC) greater than 100 µM, a TGI (HOP-62 NSCLC) greater than 100 µM and a TGI (HOP-92 NSCLC) greater than 100 µM. It also gave a TGI (HT29 colon) greater than 100 µM, a TGI (IGROV1 ovarian) greater than 100 µM and a TGI (K-562 leukemia) greater than 100 µM. For the same molecule, the TGI (KM12 colon) was greater than 100 µM, the TGI (KM20L2 colon) was greater than 100 µM and the TGI (LXFL 529 NSCLC) was greater than 100 µM. The TGI (M14 melanoma) was greater than 100 µM, the TGI (M19-MEL melanoma) was greater than 100 µM and the TGI (MALME-3M melanoma) was greater than 100 µM. For the same molecule, the TGI (MOLT-4 leukemia) was greater than 100 µM, the TGI (NCI-H226 lung) was greater than 100 µM and the TGI (NCI-H23 lung) was greater than 100 µM. It also gave a TGI (NCI-H460 lung) greater than 100 µM, a TGI (NCI-H522 lung) greater than 100 µM and a TGI (OVCAR-3 ovarian) greater than 100 µM. It also gave a TGI (OVCAR-4 ovarian) greater than 100 µM, a TGI (OVCAR-8 ovarian) greater than 100 µM and a TGI (RPMI-8226 leukemia) greater than 100 µM. For the same molecule, the TGI (RXF 393 renal) was greater than 100 µM, the TGI (RXF-631 renal) was greater than 100 µM and the TGI (SF-268 CNS) was greater than 100 µM. For the same molecule, the TGI (SF-295 CNS) was greater than 100 µM, the TGI (SF-539 CNS) was greater than 100 µM and the TGI (SK-MEL-2 melanoma) was greater than 100 µM. For the same molecule, the TGI (SK-MEL-28 melanoma) was greater than 100 µM, the TGI (SK-MEL-5 melanoma) was greater than 100 µM and the TGI (SK-OV-3 ovarian) was greater than 100 µM. The TGI (SN12C renal) was greater than 100 µM, the TGI (SNB-19 CNS) was greater than 100 µM and the TGI (SNB-75 CNS) was greater than 100 µM. The TGI (SR leukemia) was greater than 100 µM, the TGI (SW-620 colon) was greater than 100 µM and the TGI (TK-10 renal) was greater than 100 µM. For the same molecule, the TGI (U251 CNS) was greater than 100 µM, the TGI (UACC-257 melanoma) was greater than 100 µM and the TGI (UACC-62 melanoma) was greater than 100 µM. It also gave a TGI (UO-31 renal) greater than 100 µM.
